From ChEMBL document CHEMBL1156596, “Overcoming undesirable CYP1A2 inhibition of pyridylnaphthalene-type aldosterone synthase inhibitors: influence of heteroaryl derivatization on potency and selectivity” (J Med Chem, 2008)

Assays:
[1] = biological target: T1, Cytochrome P450 11B1, mitochondrial (Homo sapiens, UniProt P15538)
T1 sequence (P15538 whole entry): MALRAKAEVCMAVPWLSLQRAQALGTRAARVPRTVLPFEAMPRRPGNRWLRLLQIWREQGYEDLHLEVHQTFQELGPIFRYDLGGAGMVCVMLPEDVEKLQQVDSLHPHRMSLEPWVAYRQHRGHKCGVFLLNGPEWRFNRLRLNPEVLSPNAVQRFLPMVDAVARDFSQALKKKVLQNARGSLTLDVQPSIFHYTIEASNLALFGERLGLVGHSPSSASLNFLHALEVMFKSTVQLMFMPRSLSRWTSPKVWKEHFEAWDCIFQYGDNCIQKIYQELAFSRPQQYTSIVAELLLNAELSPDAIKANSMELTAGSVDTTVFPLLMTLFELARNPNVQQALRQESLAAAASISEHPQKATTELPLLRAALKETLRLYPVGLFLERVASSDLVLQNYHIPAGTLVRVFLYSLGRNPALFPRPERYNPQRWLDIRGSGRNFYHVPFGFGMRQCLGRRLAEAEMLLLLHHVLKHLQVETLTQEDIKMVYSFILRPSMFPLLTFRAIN

CYP1A2 = biological target: T2, CYP1A2 (Homo sapiens, UniProt P05177); experiment: Inhibition of human recombinant CYP1A2 expressed in insect microsomes at 2 uM; assay type: ADME, Microsome
T2 sequence (P05177 whole entry): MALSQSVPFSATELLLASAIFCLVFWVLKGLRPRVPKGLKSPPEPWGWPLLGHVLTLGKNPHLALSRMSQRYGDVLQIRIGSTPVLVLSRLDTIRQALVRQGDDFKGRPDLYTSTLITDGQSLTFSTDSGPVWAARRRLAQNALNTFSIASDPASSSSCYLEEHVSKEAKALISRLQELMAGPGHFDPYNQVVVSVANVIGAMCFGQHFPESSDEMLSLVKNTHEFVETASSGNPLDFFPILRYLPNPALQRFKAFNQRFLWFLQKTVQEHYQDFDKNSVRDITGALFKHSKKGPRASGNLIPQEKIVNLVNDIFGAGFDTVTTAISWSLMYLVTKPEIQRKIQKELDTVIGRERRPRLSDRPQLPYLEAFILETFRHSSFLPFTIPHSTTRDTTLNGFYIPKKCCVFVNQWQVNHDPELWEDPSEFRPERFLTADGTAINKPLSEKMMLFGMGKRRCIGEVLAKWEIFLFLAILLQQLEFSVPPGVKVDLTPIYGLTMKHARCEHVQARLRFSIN

Homo sapiens = organism: Homo sapiens; experiment: Selectivity ratio of IC50 for human CYP11B1 to IC50 for human CYP11B2
[2] = biological target: T3, Cytochrome P450 11B2, mitochondrial (Homo sapiens, UniProt P19099)
T3 sequence (P19099 whole entry): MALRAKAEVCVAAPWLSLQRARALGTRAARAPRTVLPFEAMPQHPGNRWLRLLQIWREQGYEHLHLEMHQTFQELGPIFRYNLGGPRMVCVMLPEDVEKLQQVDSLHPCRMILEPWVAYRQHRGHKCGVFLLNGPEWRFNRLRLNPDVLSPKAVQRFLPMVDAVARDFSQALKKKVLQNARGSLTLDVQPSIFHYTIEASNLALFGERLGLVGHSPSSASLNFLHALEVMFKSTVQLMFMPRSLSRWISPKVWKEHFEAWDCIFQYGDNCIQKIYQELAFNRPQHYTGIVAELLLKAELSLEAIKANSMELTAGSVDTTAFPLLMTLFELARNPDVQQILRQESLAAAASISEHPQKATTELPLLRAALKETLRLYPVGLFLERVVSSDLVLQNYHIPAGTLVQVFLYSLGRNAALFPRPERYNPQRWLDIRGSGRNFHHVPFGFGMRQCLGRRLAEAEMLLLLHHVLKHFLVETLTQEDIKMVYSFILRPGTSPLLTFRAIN

Cytochrome P450 2C19 = Cytochrome P450 2C19 (Homo sapiens, UniProt P33261); experiment: Inhibition of human recombinant CYP2C19 expressed in insect microsomes; assay type: ADME, Microsome
Cytochrome P450 2C19, sequence (P33261 whole entry): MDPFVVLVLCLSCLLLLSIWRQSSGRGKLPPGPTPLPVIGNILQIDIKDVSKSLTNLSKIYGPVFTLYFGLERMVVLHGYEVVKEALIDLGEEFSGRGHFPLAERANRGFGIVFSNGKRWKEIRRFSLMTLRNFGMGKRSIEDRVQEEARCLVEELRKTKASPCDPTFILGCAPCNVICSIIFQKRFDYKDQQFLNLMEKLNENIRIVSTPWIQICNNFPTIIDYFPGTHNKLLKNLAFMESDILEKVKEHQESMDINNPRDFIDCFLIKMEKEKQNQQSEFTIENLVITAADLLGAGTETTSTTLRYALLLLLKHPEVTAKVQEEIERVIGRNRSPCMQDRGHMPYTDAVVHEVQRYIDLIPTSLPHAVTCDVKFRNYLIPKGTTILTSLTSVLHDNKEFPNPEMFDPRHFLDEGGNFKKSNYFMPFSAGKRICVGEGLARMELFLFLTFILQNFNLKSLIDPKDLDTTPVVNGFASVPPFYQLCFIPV

CYP17 = biological target: T4, CYP17 (Homo sapiens, UniProt P05093); experiment: Inhibition of human recombinant CYP17 expressed in Escherichia coli at 2 uM
T4 sequence (P05093 whole entry): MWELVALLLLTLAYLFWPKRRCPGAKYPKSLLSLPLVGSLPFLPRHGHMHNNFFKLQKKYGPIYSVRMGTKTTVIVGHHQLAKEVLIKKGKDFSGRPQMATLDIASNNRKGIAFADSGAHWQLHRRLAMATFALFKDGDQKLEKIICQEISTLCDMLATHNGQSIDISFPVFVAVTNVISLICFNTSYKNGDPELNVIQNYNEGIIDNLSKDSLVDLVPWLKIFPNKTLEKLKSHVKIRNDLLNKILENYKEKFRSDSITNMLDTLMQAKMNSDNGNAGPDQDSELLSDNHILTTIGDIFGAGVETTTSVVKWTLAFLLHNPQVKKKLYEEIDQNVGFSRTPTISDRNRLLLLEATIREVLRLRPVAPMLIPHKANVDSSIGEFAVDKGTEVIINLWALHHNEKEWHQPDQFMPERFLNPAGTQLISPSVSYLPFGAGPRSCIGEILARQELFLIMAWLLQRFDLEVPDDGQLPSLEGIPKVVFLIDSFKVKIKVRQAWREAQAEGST

Cytochrome P450 1A2 = biological target: T5, Cytochrome P450 1A2 (Homo sapiens, UniProt P05177)
T5 sequence (P05177 whole entry): T2 sequence (P05177 whole entry)

Cytochrome P450 3A4 = Cytochrome P450 3A4 (Homo sapiens, UniProt P08684); experiment: Inhibition of human recombinant CYP3A4 expressed in insect microsomes; assay type: ADME, Microsome
Cytochrome P450 3A4, sequence (P08684 whole entry): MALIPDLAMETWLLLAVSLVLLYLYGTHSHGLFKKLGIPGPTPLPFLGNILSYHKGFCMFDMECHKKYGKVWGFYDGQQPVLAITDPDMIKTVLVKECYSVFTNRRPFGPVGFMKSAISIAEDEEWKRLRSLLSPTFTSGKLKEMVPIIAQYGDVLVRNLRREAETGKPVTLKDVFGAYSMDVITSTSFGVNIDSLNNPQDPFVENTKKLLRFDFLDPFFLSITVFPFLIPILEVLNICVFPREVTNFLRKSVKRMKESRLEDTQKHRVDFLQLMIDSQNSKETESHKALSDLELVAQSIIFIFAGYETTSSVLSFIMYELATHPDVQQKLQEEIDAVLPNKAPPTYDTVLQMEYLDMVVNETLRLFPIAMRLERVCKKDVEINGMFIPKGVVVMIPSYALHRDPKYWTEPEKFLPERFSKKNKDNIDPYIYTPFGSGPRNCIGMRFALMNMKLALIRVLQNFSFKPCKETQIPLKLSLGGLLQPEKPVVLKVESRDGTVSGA

CYP19 (aromatase) = biological target: T6, CYP19 (aromatase) (Homo sapiens, UniProt P11511); experiment: Inhibition of human placental CYP19 at 500 nM
T6 sequence (P11511 whole entry): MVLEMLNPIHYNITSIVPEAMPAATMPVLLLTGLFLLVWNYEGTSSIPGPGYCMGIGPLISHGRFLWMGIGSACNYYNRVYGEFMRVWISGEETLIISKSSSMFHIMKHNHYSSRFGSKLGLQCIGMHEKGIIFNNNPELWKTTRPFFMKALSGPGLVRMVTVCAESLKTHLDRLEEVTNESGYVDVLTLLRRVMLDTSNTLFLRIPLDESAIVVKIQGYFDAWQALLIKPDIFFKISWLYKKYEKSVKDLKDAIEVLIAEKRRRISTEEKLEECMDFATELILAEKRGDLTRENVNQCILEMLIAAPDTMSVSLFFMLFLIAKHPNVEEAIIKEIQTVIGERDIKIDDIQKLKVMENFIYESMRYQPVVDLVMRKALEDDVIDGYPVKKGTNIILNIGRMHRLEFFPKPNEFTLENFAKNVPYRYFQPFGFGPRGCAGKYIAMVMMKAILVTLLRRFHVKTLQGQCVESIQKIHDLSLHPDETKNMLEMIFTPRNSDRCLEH

Cytochrome P450 2D6 = Cytochrome P450 2D6 (Homo sapiens, UniProt P10635); experiment: Inhibition of human recombinant CYP2D6 expressed in insect microsomes; assay type: ADME, Microsome
Cytochrome P450 2D6, sequence (P10635 whole entry): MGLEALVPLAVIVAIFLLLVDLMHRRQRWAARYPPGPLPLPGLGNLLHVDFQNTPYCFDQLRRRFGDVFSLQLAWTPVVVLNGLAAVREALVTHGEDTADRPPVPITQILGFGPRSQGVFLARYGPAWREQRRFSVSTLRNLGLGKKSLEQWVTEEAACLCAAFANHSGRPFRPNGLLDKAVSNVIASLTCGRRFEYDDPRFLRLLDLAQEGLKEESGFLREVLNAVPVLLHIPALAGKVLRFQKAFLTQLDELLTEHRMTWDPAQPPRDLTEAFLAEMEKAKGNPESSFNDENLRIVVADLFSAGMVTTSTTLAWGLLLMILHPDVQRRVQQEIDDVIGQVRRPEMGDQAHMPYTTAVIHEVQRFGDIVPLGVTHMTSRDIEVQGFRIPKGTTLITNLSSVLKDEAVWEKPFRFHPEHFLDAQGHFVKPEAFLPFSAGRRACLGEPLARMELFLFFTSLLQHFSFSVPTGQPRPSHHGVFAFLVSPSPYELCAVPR

Cytochrome P450 2B6 = biological target: T7, Cytochrome P450 2B6 (Homo sapiens, UniProt P20813); experiment: Inhibition of human recombinant CYP2B6 expressed in insect microsomes; assay type: ADME, Microsome
T7 sequence (P20813 whole entry): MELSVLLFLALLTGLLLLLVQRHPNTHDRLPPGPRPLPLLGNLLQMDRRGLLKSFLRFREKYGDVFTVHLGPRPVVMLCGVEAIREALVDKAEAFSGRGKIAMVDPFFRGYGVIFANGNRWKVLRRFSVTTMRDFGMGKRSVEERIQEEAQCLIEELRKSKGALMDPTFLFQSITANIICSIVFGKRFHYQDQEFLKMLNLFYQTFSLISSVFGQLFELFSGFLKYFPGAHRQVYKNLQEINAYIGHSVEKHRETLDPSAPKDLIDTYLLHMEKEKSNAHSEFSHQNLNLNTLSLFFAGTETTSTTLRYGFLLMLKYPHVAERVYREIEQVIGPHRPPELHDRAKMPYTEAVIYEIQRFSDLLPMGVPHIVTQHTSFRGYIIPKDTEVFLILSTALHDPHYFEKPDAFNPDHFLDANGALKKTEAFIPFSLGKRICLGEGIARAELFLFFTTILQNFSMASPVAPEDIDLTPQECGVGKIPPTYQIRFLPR

[3] = Cmax in Wistar rat at 5 mg/kg, po; assay type: ADME, organism-based; design: dose 5 mg/kg, route oral; conditions: in vivo
Cytochrome P450 2C9 = Cytochrome P450 2C9 (Homo sapiens, UniProt P11712); experiment: Inhibition of human recombinant CYP2C9 expressed in insect microsomes; assay type: ADME, Microsome
Cytochrome P450 2C9, sequence (P11712 whole entry): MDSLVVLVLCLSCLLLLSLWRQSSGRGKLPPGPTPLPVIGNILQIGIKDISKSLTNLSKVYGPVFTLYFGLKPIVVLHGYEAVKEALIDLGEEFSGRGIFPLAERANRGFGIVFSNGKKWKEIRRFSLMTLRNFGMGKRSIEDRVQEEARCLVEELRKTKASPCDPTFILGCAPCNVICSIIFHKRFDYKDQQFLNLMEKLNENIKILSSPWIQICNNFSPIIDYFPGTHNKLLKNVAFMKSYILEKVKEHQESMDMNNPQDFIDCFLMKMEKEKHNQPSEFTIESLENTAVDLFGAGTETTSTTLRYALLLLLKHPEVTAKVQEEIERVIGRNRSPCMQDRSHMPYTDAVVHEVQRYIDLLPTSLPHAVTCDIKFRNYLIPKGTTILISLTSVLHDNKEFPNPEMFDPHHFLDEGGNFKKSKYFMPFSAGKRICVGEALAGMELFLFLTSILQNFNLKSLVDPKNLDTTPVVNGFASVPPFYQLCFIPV

SMILES	IC50 [1] [nM]	inhibition at 2 µM (CYP1A2) [%]	Ratio IC50 (Homo sapiens)	IC50 [2] [nM]	further results
Cc1ccncc1-c1ccc2cc(C#N)ccc2c1	52	86	87	0.6	
COc1cncc(C2=Cc3ccc(OC)cc3CC2C)c1 (stereo not given)	100	18	83	1.2	
COC(=O)c1cncc(-c2ccc3cc(OC)ccc3c2)c1	15		19	0.8	
Cc1nc2c([nH]1)c(=O)n(C)c(=O)n2Cc1ccco1 [FURAFYLLINE]		55			
COc1ccc2cc(-c3cnccc3CO)ccc2c1	1760	92	80	22	
COc1ccc2c(c1)CC(C)C(c1cncc3ccccc13)=C2 (stereo not given)	64	6	128	0.5	
COc1ccc2cc(-c3cncc(CC(=O)O)c3)ccc2c1	37800		31	1220	
COc1ccc2cc(-c3cccnc3)c(C)cc2c1	1050	93	150	7	
CCOc1cncc(-c2ccc3cc(OC)ccc3c2)c1	373	85	73	5.1	
COc1ccc2c(c1)CCC(c1cccnc1)=C2		98			
COCc1ccncc1-c1ccc2cc(OC)ccc2c1	435	97	198	2.2	
COc1cncc(-c2cc3ccc(OC)cc3cc2C)c1	875	91	230	3.8	
COC(=O)Cc1cncc(-c2ccc3cc(OC)ccc3c2)c1	199		29	6.9	
COc1ccc2cc(-c3cncc(CO)c3)ccc2c1	614	93	68	9.1	
COc1ccc2cc(-c3cncc(O)c3)ccc2c1	8920	93	95	94	
COc1ccc2cc(-c3cncc(C(N)=O)c3)ccc2c1	41600		442	94	
N#Cc1ccc2c(c1)CCC(c1cccnc1)=C2	461	91	103	4.5	
COc1ccc2cc(-c3cnccc3N)ccc2c1	1520	58	117	13	IC50 (Cytochrome P450 2C19): 45800 nM; inhibition at 2 µM (CYP17): 42%; IC50 (Cytochrome P450 1A2): 1420 nM; IC50 (Cytochrome P450 3A4): 21100 nM; inhibition at 0.5 µM (CYP19 (aromatase)): 47%; IC50 (Cytochrome P450 2D6): 11100 nM; IC50 (Cytochrome P450 2B6): > 50000 nM; Cmax [3]: < 1.5 ng/mL; IC50 (Cytochrome P450 2C9): 49000 nM
COc1cncc(-c2ccc3cc(OC)ccc3c2)c1	238	91	57	4.2	IC50 (Cytochrome P450 2C19): > 25000 nM; inhibition at 2 µM (CYP17): 41%; IC50 (Cytochrome P450 1A2): 83 nM; IC50 (Cytochrome P450 3A4): 1910 nM; inhibition at 0.5 µM (CYP19 (aromatase)): 14%; IC50 (Cytochrome P450 2D6): > 25000 nM; IC50 (Cytochrome P450 2B6): > 25000 nM; IC50 (Cytochrome P450 2C9): 1890 nM
COc1ccc2cc(-c3cncc(C(C)=O)c3)ccc2c1	255	80	121	2.1	IC50 (Cytochrome P450 2C19): > 200000 nM; inhibition at 2 µM (CYP17): 36%; IC50 (Cytochrome P450 1A2): 488 nM; IC50 (Cytochrome P450 3A4): 9070 nM; inhibition at 0.5 µM (CYP19 (aromatase)): < 5%; IC50 (Cytochrome P450 2D6): > 200000 nM; IC50 (Cytochrome P450 2B6): > 50000 nM; IC50 (Cytochrome P450 2C9): > 200000 nM
COc1ccc2c(c1)CC(C)C(c1cccnc1)=C2 (stereo not given)		73	79	3.3	
COc1ccc2cc(-c3cnccc3C)ccc2c1	114	98	143	0.8	
COc1ccc2cc(-c3cncc4ccccc34)c(C)cc2c1	843	45	272	3.1	
COCc1cncc(-c2ccc3cc(OC)ccc3c2)c1	31	83	155	0.2	
COc1ccc2cc(-c3cncc(C(C)OC)c3)ccc2c1 (stereo not given)	10		50	0.2	
COc1ccc2cc(-c3cncc(C(C)O)c3)ccc2c1 (stereo not given)	99	78	198	0.5	
COc1ccc2cc(-c3cncc(-c4ccccc4)c3)ccc2c1	151		32	4.8	
